Legend:
[1] = tested on: haematological cancer cell lines; assay: Apoptosis induction in haematological cancer cell lines; assay type: cell-based
IL4r = assay: IL-4R transfectant, STAT6 reporter gene (secreted phosphatase); assay type: cell-based
Excerpt: (§1) The secreted phosphatase sPase was used as reporter for its ability to process the luminiscent or colorimetric substrates from the culture based in the hydrolysis of substrates chemically similar to nitrophenol phosphate. Five generation of transfectants were developed as described: • 1. IL-4R. Chains of Type II IL-4-r, which is the common one within non-haematopoietic cells were transfected, as well as STAT6 which the key molecule in the nuclear signalling route by IL-4-r, and finally a reporter gene to measure the response to STAT6 was introduced. Endogenously, cells had Janus Associated Kinase 1 (JAK1) which was previously known to be associated with STAT6 via p62/aPKC. • 2. IL-6R. Chains of IL-6R were transfected and a reporter gene able to measure the response to STAT3 was introduced. As it is well known, STAT3 is a transductional molecule and a nuclear factor physiologically produced in the standard responses IL-6/IL-6R. • 3. TNF-R. In this case, a reporter gene able to measure the response to NF-kB was introduced, as this is the transductional molecule and the nuclear factor physiologically produced in response to TNF-alpha. […] LPS-Receptor complex represented by TLR4/MD2/CD14. Reporter genes with elements of response to NFkB were used as in the previous case, but the selectivity was achieved by the co-transfection of components of the LPS-R complex. The LPS is captured from the serum through the union to one plasma protein known as LBP, which transfers the LPS to the membrane protein CD14. The LBP inclusion accounts for an increase of 1000-fold the sensitivity versus media or cultures LBP-frees. The molecule CD14 is not an LPS-receptor but a module of the receptor complex which captures LBP, allowing the transference of LPS in the cellular surface to MD2. CD14 has not a cytoplasmic tail and it is not able to be a signal transducer but it substantially increases the sensitivity of the system. In a similar way, MD2 is not a signal transducer but the combination of CD14 and MD2 allows the increase of the sensitivity by 10000-fold. • 5. IL-1R. Reporter genes with elements of response to NFkB were used as in the previous case, but the selectivity was achieved by the expression of components belonging to the receptor complex IL-1R. IL-1R belongs to a receptors superfamily which uses TIR transduction domains (Toll-like IL-1R). It is known that the IL-1R route activates mitogen-activated protein kinases (MAPK) of JNK type which in turn generate nuclear factors transcriptionally active as AP-1. The reporter gene includes NFkB and AP-1 sites chained in order to simulate the physiological situation.

[2] = Cytotoxicity for human non-tumoral cells, XTT; assay type: cell-based; details: HUVEC cells (primary, from human cords)
Procedure: (§2) The cytotoxicity of the compounds for human non-tumoral cells was studied in fibroblasts, HUVEC cells and resting PBLs (Peripheral Blood lymphocytes).
HUVEC cells were obtained by treating human cords with collagenase type I, […] in Hank's medium incubating 20 minutes at 37° C. Cells were collected afterwards and cultivated in medium M199 with supplements of 20% FBS, 1% P/S and 25 mg/500 ml of medium ECGF, Cells were grown on a 0.2% gelatin matrix.
(§3) Distinct amounts of exponentially growing cells were seeded in 96-well flat-bottomed microtiter plates in a final volume of 100 μl were seeded in 96-well flat-bottomed microtiter plates, and incubated at 37° C. in a humidified atmosphere of 5% CO2/95% air for 24 h to allow the cells attach to the plates. Then, cells were incubated with different concentrations of the assayed compound at 37° C. under the 5% CO2/95% air atmosphere for 72 h. Cell proliferation was quantified using the XTT cell proliferation kit (Roche Molecular Biochemicals, Mannheim, Germany) following the manufacturer's instructions. Briefly, a freshly prepared mixture solution (50 μl) of XTT labelling reagent and PMS (N-methyldibenzopyrazine methyl sulfate) electron coupling reagent was added to each well. The resulting mixtures were further incubated for 4 h in a humidified atmosphere (37° C., 5% CO2), and the absorbance of the formazan product generated was measured with a microtiter plate reader at a test wavelength of 490 nm and a reference wavelength of 655 nm. The IC50 (50% inhibitory concentration) was then calculated as the drug concentration causing a 50% inhibition of cell proliferation. Data are shown as mean values of four independent experiments each performed in triplicate.

TNFr = assay: TNF-R transfectant, NF-kB reporter gene (secreted phosphatase); assay type: cell-based
Excerpt: as §1

resting human PBLs = assay: Apoptosis of resting human PBLs; assay type: cell-based
Procedure: To isolate normal peripheral blood lymphocytes (PBLs), mononuclear cells were obtained from fresh human peripheral blood from healthy volunteers by centrifugation on Ficoll-Hypaque density gradients, washed with phosphate-buffered saline (PBS), and resuspended in RPMI-1640 medium containing 10% (v/v) heat-inactivated FBS, 2 mM L-glutamine, 100 U/ml penicillin, and 100 μg/ml streptomycin as described (Cabaner et al. Br. J. Pharmacol 127:813-825.1999). Monocytes were depleted by culture dish adherence after overnight incubation. Nonadherent cells (lymphocytes) were washed with PBS and collected. PBL preparations were typically 70-75% CD3^+, 24-29% CD 19^+, and less than 0.4% CD 14^+.

NCI-H460 = assay: In vitro cytotoxicity, SRB method; assay type: cell-based; details: Homo sapiens, NCI-H460 lung, 72 hours
Procedure: (§4) SRB method was followed (Wieland, V., et al. Sulforhodamine B Assay and Chemosensitivity. Chemosensitivity, volume 1, In Vitro Assays. Methods in Molecular Medicine. Edited by Rosalyn D. Blumenthal. Humana Press, Totowa, N.J., 2005).
(§5) Cells were seeded in microplates of 96 wells. In each well, according to the cell type, specific number of cells were seeded in 200 microliters. In these conditions, cells were cultured for 3 days, with the aim of reaching their exponential phase of growing to assay the product cytotoxicity. The product concentrations were prepared just the day of treatments, after thawing the stock solutions (10 mM). After harvesting the microplate with the seeded cells for 3 days, the culture medium was discarded and replaced by 150 μl of fresh medium in each well. This was followed by the addition of 50 μl of the corresponding product dilution so as the final concentration in the final volume of 200 microliters in each well was the one scheduled. The products, at the assayed concentrations, were in contact with the cell growing monolayer for 72 hours and incubated at 37° C., 5% CO2. Finally, cells were growth arrested adding […] of cold TCA (Trichloroacetic acid) 50%, (final concentration of 10% in the well). Microplate was then maintained at 4° C. for over 60 min to fix cellular proteins till initiation of washing and staining with SRB.
(§6) Cell viability (%)=(Cell population of the treated well/Maximum cell population of the Standard curve)×100.
(§7) Mean viability values for each concentration were calculated from the values obtained for each well in which that concentration was assayed.

SF268 = assay: In vitro cytotoxicity, SRB method; assay type: cell-based; details: Homo sapiens, SF-268, SF268 glioblastoma, 72 hours
Procedure: as §4, §5, §6, §7

HepG2 = assay: In vitro cytotoxicity, SRB method; assay type: cell-based; details: Homo sapiens, HepG2 hepatoma, 72 hours
Procedure: as §4, §5, §6, §7

SW260 = assay: In vitro cytotoxicity, SRB method; assay type: cell-based; details: SW260 colon cancer, 72 hours
Procedure: as §4, §5, §6, §7

B16-F1 = assay: In vitro cytotoxicity, SRB method; assay type: cell-based; details: Mus musculus, B16-F1 melanoma, 72 hours
Procedure: as §4, §5, §6, §7

HCT116 = assay: In vitro cytotoxicity, SRB method; assay type: cell-based; details: Homo sapiens, HCT-116, HCT116 colon cancer, 72 hours
Procedure: as §4, §5, §6, §7

Malm-3M = assay: In vitro cytotoxicity, SRB method; assay type: cell-based; details: Malm-3M melanoma, 72 hours
Procedure: as §4, §5, §6, §7

IL6r = assay: IL-6R transfectant, STAT3 reporter gene (secreted phosphatase); assay type: cell-based
Excerpt: as §1

[3] = Cytotoxicity for human non-tumoral cells, XTT; assay type: cell-based; details: Fibroblasts
Procedure: as §2, §3

TNF-α = assay: Murine endotoxemia (LPS i.p.), blood serum TNF-α; assay type: in vivo, mice; details: orally 100 mg/kg; 90 min after LPS 1 mg/kg i.p.
Procedure: MATERIAL AND METHODS: Male CD1 mice, weighing between 30 and 35 g and housed under controlled standard conditions, were used. These animal fasted (for 14-16 hours; 12 per group; 6 per cage≅500 cm^2), with a nutritional solution made of Saccharose (8%) and NaCl (0.2%), ad libitum. Oral test treatments were given in suspensions (vehicle: Tween 80 0.1%—NaCl 0.9%), in a 10 ml/kg volume ratio. One hour later, murine endotoxemia was induced by intraperitoneal injection of Lipopolysaccharides from Escherichia coli serotype 055:B5 (Sigma L-2880), at 1 mg/kg dose and in a 10 ml/kg volume ratio, dissolved in sterile saline. Ninety minutes after LPS injection (i.p.), under Isoflurane anaesthesia, 0.5-0.8 ml of blood was extracted by cardiac punction; the blood sample was centrifuged (6000 rpm; 10 minutes; 4° C.) and 2 serum samples were taken and kept frozen at −70° C. until serum TNF-α concentrations were measured (EIA: Mouse TNF/TNF SF1A Quantikine from R&D Systems).

[4] = tested on: colorectal cancer cells from patients with Kras mutation; assay: Mutated Kras colon cancer orthotopic animal model; assay type: in vivo, mice; details: compared with vehicle control, FIG. 4A
Procedure: Using an animal model based on colorectal cancer cells from patients with Kras mutation, implanted on mice in the colon area (Yao, M. Cyclooxygenase-2 selective inhibition with NS-398 suppresses proliferation and invasiveness and delays liver metastasis in colorectal cancer. Br. J. Cancer, 2004 Feb. 9; 90(3):712-9), the effects of Compound 3 were tested.

IL6 = assay: Blood serum IL6 in mice treated with parathyroid hormone; assay type: in vivo; details: orally 25 mg/kg; pTH-rp treated mice
Procedure: MATERIAL AND METHODS: Male CD1 mice, between 5 and 7 week and housed under controlled standard conditions, were used. These animal fasted (for 14-16 hours; 12 per group; 6 per cage≅1100 cm^2), with solid and liquid food ad libitum. During 5 days, the animals were treated with 8 i.p. administration of pTH-rp (1-34, human) 15 microgram/0.1 ml/injection
Oral test treatments were given in suspensions (vehicle: Tween 80 0.1%—NaCl 0.9%), in a 10 ml/kg volume ratio., one hour later of pTH injection.
Two hours after last pTH administration and under Isoflurane anaesthesia, 0.5-0.8 ml of blood was extracted by cardiac punction; the blood sample was centrifuged (6000 rpm; 10 minutes; 4° C.) and 2 serum samples were taken and kept frozen at −70° C. until serum IL6 concentrations were measured (EIA: reference number 555240. BD Bioscience).

Row | Compound | Inhibition of IL4r (IL4r) | Inhibition of TNFr (TNFr) | melting point [°C] | Inhibition of IL6r (IL6r) | concentration inducing apoptosis in haematological cancer cell lines [1] | IC50 at 72 h [2] [µM] | % Apoptosis PBLs (resting human PBLs; 10^−4 M) [%] | % Apoptosis PBLs (resting human PBLs; 10^−5 M) [%] | effect on PBLs (resting human PBLs; even at 10^−4 M) | IC50 (NCI-H460) [µM] | IC50 (SF268) [µM] | IC50 (HepG2) [µM] | IC50 (SW260) [µM] | IC50 (B16-F1) [µM] | IC50 (HCT116) [µM] | IC50 (Malm-3M) [µM] | IC50 at 72 h [3] [µM] | reduction of blood serum levels of TNF-α in relation to vehicle group (TNF-α) [%] | tumour volume of human colorectal cancer [4] | reduction of blood serum levels of IL6 in relation to vehicle group (IL6) [%]
1 | O=c1[nH]cc(F)c(=O)[nH]1 [Compound 5-FU, 5-F uracil, reference compound] |  |  |  |  |  |  |  |  |  |  |  |  |  |  |  |  |  |  | not active in the tested experimental conditions | 
2 | Cl.FC(F)(F)Oc1cccc(CNCCCCC=C(c2ccccc2)c2ccccc2)c1 [Compound 15, (6,6-diphenyl-hex-5-enyl)-(3-trifluoromethoxybenzyl)amine hydrochloride] |  |  | 96.6 to 98.5 |  |  |  |  |  |  |  |  |  |  |  |  |  |  |  |  | 64.58

The next lines start with results.

Row | Inhibition of IL4r (IL4r) | Inhibition of TNFr (TNFr) | melting point [°C] | Inhibition of IL6r (IL6r) | Compound | concentration inducing apoptosis in haematological cancer cell lines [1] | IC50 at 72 h [2] [µM] | % Apoptosis PBLs (resting human PBLs; 10^−4 M) [%] | % Apoptosis PBLs (resting human PBLs; 10^−5 M) [%] | effect on PBLs (resting human PBLs; even at 10^−4 M) | IC50 (NCI-H460) [µM] | IC50 (SF268) [µM] | IC50 (HepG2) [µM] | IC50 (SW260) [µM] | IC50 (B16-F1) [µM] | IC50 (HCT116) [µM] | IC50 (Malm-3M) [µM] | IC50 at 72 h [3] [µM] | reduction of blood serum levels of TNF-α in relation to vehicle group (TNF-α) [%] | tumour volume of human colorectal cancer [4] | reduction of blood serum levels of IL6 in relation to vehicle group (IL6) [%]
3 | Inhibition of IL4r total | Inhibition of TNFr total | 161 to 161.6 | Inhibition of IL6r total | C(CCCNCc1cccs1)=C(c1ccccc1)c1ccccc1.Cl [Compound 6, (5,5-diphenyl-pent-4-enyl)-thiophen-2-ylmethyl-amine hydrochloride] | ~10^−6 M | 27 | 7.2 | 4.1 | hardly affect PBLs | 17 | 29 | 5 to 50 | 13 | 16 | 8.1 | 13 | 24 |  |  | 
4 | Inhibition of IL4r total | Inhibition of TNFr total | 251 to 253.8 | Inhibition of IL6r total | C(CCCNCc1nc2ccccc2[nH]1)=C(c1ccccc1)c1ccccc1.Cl [Compound 11, (1H-benzoimidazol-2-ylmethyl)-(5,5-diphenyl-pent-4-enyl)amine hydrochloride] |  |  |  |  |  |  |  |  |  |  |  |  |  | 35.42 |  | 
5 | Inhibition of IL4r total | Inhibition of TNFr total | 139 to 141.3 | Inhibition of IL6r total | C(CCCNCc1ccco1)=C(c1ccccc1)c1ccccc1.Cl [Compound 8, (5,5-diphenyl-pent-4-enyl)furan-2-ylmethylamine hydrochloride] |  |  |  |  |  | 5 to 50 | 5 to 50 | 5 to 50 | 5 to 50 | 14 | 5 to 50 | 16 |  | 37.7 |  | 

— US20130296346A1, “DIPHENYL-AMINE DERIVATIVES: USES, PROCESS OF SYNTHESIS AND PHARMACEUTICAL COMPOSITIONS” (Faes Farma, S.A., priority 2010, published 2013)
